Molecules are shown by their SMILES.

The values below come from ChEMBL document CHEMBL3627642 (Bioorg Med Chem, 2015).

Data set [1] is described as follows: Inhibition of thrombin-induced rabbit platelet aggregation after 4 hrs in presence of rabbit liver microsomes. Set-up: species or system Oryctolagus cuniculus. Background: Liver microsomes are vesicles of endoplasmic reticulum, rich in cytochrome P450 enzymes.
Another data set has as its target Prothrombin (Homo sapiens, UniProt P00734). Description: Inhibition of human thrombin using tosyl-glycyl-prolyl-arginine-4-nitranilide acetate as substrate preincubated for 10 mins by spectrophotometer analysis.
In a further data set the test system is Rattus norvegicus. The data set can be described thus: Antithrombotic activity in Sprague-Dawley rat venous thrombosis model assessed as reduction of thrombus weight administered intragastrically qd for 3 days measured 2 hrs after last dose. It is filed as functional, organism-based.
For the next data set, the system named is Mus musculus. The data set can be described thus: Toxicity in mouse assessed as bleeding time at 22 mg/kg, po administered 90 mins before surgery measured up to 15 mins by tail bleeding test. As to conditions: in vivo. In kind it is organism-based.

For `CCCCCOC(=O)/N=C(\N)c1ccc(CC2NCCn3c2nc2cc(C(=O)N(CCC(=O)OCC)c4ccccn4)ccc23)cc1` (stereo not given), in data set [1], the IC50 (commonly the concentration that inhibits the measured activity by half) turned out to be 27200 nM.

On to `CCOC(=O)CCN(C(=O)c1ccc2c(c1)nc1n2CCNC1Cc1ccc(/C(N)=N/C(=O)OCC(C)C)cc1)c1ccccn1` (stereo not given), for which the IC50 in data set [1] amounted to 840 nM.

`N=C(N)c1ccc(CC2NCCn3c2nc2cc(C(=O)N(CCC(=O)O)c4ccccc4)ccc23)cc1` (stereo not given) returned an IC50 at Prothrombin of 7.48 nM. In the case of `CCOC(=O)CCN(C(=O)c1ccc2c(c1)nc1n2CCNC1Cc1ccc(/C(N)=N/C(=O)OC(C)C)cc1)c1ccccn1` (stereo not given), in data set [1], the IC50 worked out at 870 nM. As to `CCCCCCOC(=O)/N=C(\N)c1ccc(CC2NCCn3c2nc2cc(C(=O)N(CCC(=O)OCC)c4ccccc4)ccc23)cc1` (stereo not given), the IC50 in data set [1] was 1440 nM. The Activity entry was “Dose-dependent effect” in the data set on Rattus norvegicus and “Non-toxic” in the data set on Mus musculus. As for `N=C(N)c1ccc(CC2NCCn3c2nc2cc(C(=O)N(CCC(=O)O)c4ccccn4)ccc23)cc1` (stereo not given), the IC50 in data set [1] amounted to 600 nM; at Prothrombin it was 9.2 nM. Consider `CCOC(=O)CCN(C(=O)c1ccc2c(c1)nc1n2CCN(C(=O)OCC(C)C)C1Cc1ccc(/C(N)=N/C(=O)OCC(C)C)cc1)c1ccccn1` (stereo not given), for which the IC50 in data set [1] worked out at 8720 nM. With `CCOC(=O)CCN(C(=O)c1ccc2c(c1)nc1n2CCN(C(=O)OCc2ccccc2)C1Cc1ccc(/C(N)=N/C(=O)OCc2ccccc2)cc1)c1ccccn1` (stereo not given), the half-maximal inhibitory concentration (IC50) in data set [1] is 9660 nM. On the same count and under the same terms, with `CCOC(=O)CCN(C(=O)c1ccc2c(c1)nc1n2CCNC1Cc1ccc(/C(N)=N/C(=O)OCC)cc1)c1ccccn1` (stereo not given) the figure was 4090 nM. On to `CCCCCCOC(=O)/N=C(\N)c1ccc(CC2NCCn3c2nc2cc(C(=O)N(CCC(=O)OCC)c4ccccn4)ccc23)cc1` (stereo not given), for which the IC50 in data set [1] was 730 nM. Moreover, the Activity result is “Dose-dependent effect” with Rattus norvegicus and “Toxic” with Mus musculus. Consider `CCCCCOC(=O)/N=C(\N)c1ccc(CC2c3nc4cc(C(=O)N(CCC(=O)OCC)c5ccccn5)ccc4n3CCN2C(=O)OCCCCC)cc1` (stereo not given), for which the IC50 in data set [1] was determined as 17900 nM.

As for `CCCCCCOC(=O)/N=C(\N)c1ccc(CC2c3nc4cc(C(=O)N(CCC(=O)OCC)c5ccccn5)ccc4n3CCN2C(=O)OCCCCCC)cc1` (stereo not given), the IC50 in data set [1] was found to be 750 nM. Further, the Activity entry is “Dose-dependent effect” with Rattus norvegicus and “Non-toxic” in the data set with Mus musculus.

With `CCOC(=O)CCN(C(=O)c1ccc2c(c1)nc1n2CCN(C(=O)OCC)C1Cc1ccc(/C(N)=N/C(=O)OCC)cc1)c1ccccn1` (stereo not given), in data set [1], the IC50 is 3420 nM. For the compound `CCCCCCOC(=O)/N=C(\N)c1ccc(CC2NCCn3c2nc2cc(C(=O)N(CCC(=O)OCc4nc(C)c(C)nc4C)c4ccccn4)ccc23)cc1` (stereo not given), the IC50 in data set [1] amounted to 640 nM. Also, the results for the Activity entry in the data set on Rattus norvegicus and in the data set on Mus musculus were “Dose-dependent effect” and “Non-toxic”, respectively. As for `CCCCCCOC(=O)NC(=N)c1ccc(NCc2nc3cc(C(=O)N(CCC(=O)OCC)c4ccccn4)ccc3n2C)cc1` [DABIGATRAN ETEXILATE], the 50% inhibitory concentration (IC50) in data set [1] is 340 nM. Further, the Activity entry in the data set on Rattus norvegicus is “Dose-dependent effect”. In the case of `CCOC(=O)CCN(C(=O)c1ccc2c(c1)nc1n2CCNC1Cc1ccc(/C(N)=N/C(=O)OCc2ccccc2)cc1)c1ccccn1` (stereo not given), in data set [1], the half-inhibitory concentration (IC50) was determined as 5960 nM. Take `CCCCCCOC(=O)/N=C(\N)c1ccc(CC2NCCn3c2nc2cc(C(=O)N(CCC(=O)OCc4nc(C)c(C)nc4C)c4ccccc4)ccc23)cc1` (stereo not given): the IC50 in data set [1] was 1210 nM. In addition, the Activity entry in the data set with Rattus norvegicus was “Dose-dependent effect”; with Mus musculus, “Toxic”. Regarding `CCOC(=O)CCN(C(=O)c1ccc2c(c1)nc1n2CCNC1Cc1ccc(/C(N)=N/C(=O)OC(C)(C)C)cc1)c1ccccn1` (stereo not given), the IC50 in data set [1] was 3320 nM. Take `CCOC(=O)CCN(C(=O)c1ccc2c(c1)nc1n2CCNC1Cc1ccc(/C(N)=N/C(=O)OC(C)C)cc1)c1ccccc1` (stereo not given): in data set [1], the concentration for half-maximal inhibition (IC50) came out at 1540 nM. Moreover, the Activity result is “Dose-dependent effect” with Rattus norvegicus and “Toxic” in the data set with Mus musculus. On to `CCOC(=O)CCN(C(=O)c1ccc2c(c1)nc1n2CCN(C(=O)OC(C)C)C1Cc1ccc(/C(N)=N/C(=O)OC(C)C)cc1)c1ccccc1` (stereo not given), for which, in data set [1], the IC50 stood at 860 nM. Moreover, in the data set with Rattus norvegicus, the Activity entry was “Dose-dependent effect”. For the compound `CCCCCCOC(=O)/N=C(\N)c1ccc(CC2c3nc4cc(C(=O)N(CCC(=O)OCC)c5ccccc5)ccc4n3CCN2C(=O)OCCCCCC)cc1` (stereo not given), in data set [1], the IC50 came to 910 nM. For the same compound, the Activity entry in the data set on Rattus norvegicus is “Dose-dependent effect”; in the data set with Mus musculus, “Non-toxic”. As for `CCOC(=O)CCN(C(=O)c1ccc2c(c1)nc1n2CCN(C(=O)OC(C)(C)C)C1Cc1ccc(/C(N)=N/C(=O)OC(C)(C)C)cc1)c1ccccn1` (stereo not given), the IC50 in data set [1] was 13800 nM. Regarding `CCOC(=O)CCN(C(=O)c1ccc2c(c1)nc1n2CCN(C(=O)OC(C)C)C1Cc1ccc(/C(N)=N/C(=O)OC(C)C)cc1)c1ccccn1` (stereo not given), the IC50 in data set [1] came out at 1520 nM.
